According to the NIST ThermoML archive (doi:10.1021/je060271a):
Values joined by “and” are separate entries in the source; they are usually repeats but may differ in a detail not shown here. Identical values can stand only once. Numbers after ± are expanded uncertainties.

Settings: 343.15 K, Liquid, Vibrating tube method

CCCCCC(=O)OCC(COC(=O)CCCCC)(COC(=O)CCCCC)COC(=O)CCCCC [pentaerythritol tetrahexanoate]
Settings | mass density
203.8 kPa | 957.2 ± 1.2 kg/m3
203.9 kPa | 957.2 ± 1.2 kg/m3 and 957.1 ± 1.2 kg/m3
204 kPa | 957.1 ± 1.2 kg/m3
204.1 kPa | 957.1 ± 1.2 kg/m3 and 957.2 ± 1.2 kg/m3
204.3 kPa | 957.2 ± 1.2 kg/m3 and 957.3 ± 1.2 kg/m3
204.5 kPa | 957.2 ± 1.2 kg/m3 and 957.3 ± 1.2 kg/m3
204.6 kPa | 957.2 ± 1.2 kg/m3 and 957.3 ± 1.2 kg/m3
204.8 kPa | 957.3 ± 1.2 kg/m3 [middle of 4 runs]
205 kPa | 957.2 ± 1.2 kg/m3 and 957.3 ± 1.2 kg/m3
205.2 kPa | 957.2 ± 1.2 kg/m3
205.3 kPa | 957.2 ± 1.2 kg/m3 and 957.3 ± 1.2 kg/m3
205.7 kPa | 957.2 ± 1.2 kg/m3
205.9 kPa | 957.2 ± 1.2 kg/m3
206 kPa | 957.2 ± 1.2 kg/m3
206.2 kPa | 957.2 ± 1.2 kg/m3
206.4 kPa | 957.2 ± 1.2 kg/m3
206.6 kPa | 957.2 ± 1.2 kg/m3 and 957.1 ± 1.2 kg/m3
206.7 kPa | 957.3 ± 1.2 kg/m3 and 957.2 ± 1.2 kg/m3
206.9 kPa | 957.3 ± 1.2 kg/m3 and 957.1 ± 1.2 kg/m3
207.1 kPa | 957.2 ± 1.2 kg/m3
207.2 kPa | 957.2 ± 1.2 kg/m3
207.3 kPa | 957.2 ± 1.2 kg/m3
207.4 kPa | 957.2 ± 1.2 kg/m3
207.9 kPa | 957.3 ± 1.2 kg/m3
208.3 kPa | 957.2 ± 1.2 kg/m3
208.6 kPa | 957.2 ± 1.2 kg/m3 and 957.1 ± 1.2 kg/m3
208.8 kPa | 957.3 ± 1.2 kg/m3 and 957.2 ± 1.2 kg/m3
209 kPa | 957.2 ± 1.2 kg/m3
209.2 kPa | 957.3 ± 1.2 kg/m3 and 957.2 ± 1.2 kg/m3
209.3 kPa | 957.2 ± 1.2 kg/m3 and 957.3 ± 1.2 kg/m3 and 957.1 ± 1.2 kg/m3
209.5 kPa | 957.2 ± 1.2 kg/m3
209.7 kPa | 957.2 ± 1.2 kg/m3
209.9 kPa | 957.1 ± 1.2 kg/m3 and 957.2 ± 1.2 kg/m3
211.1 kPa | 957.2 ± 1.2 kg/m3
212.5 kPa | 957.1 ± 1.2 kg/m3
212.6 kPa | 957.2 ± 1.2 kg/m3 and 957.3 ± 1.2 kg/m3
212.7 kPa | 957.2 ± 1.2 kg/m3
212.8 kPa | 957.1 ± 1.2 kg/m3 and 957.2 ± 1.2 kg/m3
213 kPa | 957.2 ± 1.2 kg/m3
213.2 kPa | 957.2 ± 1.2 kg/m3
213.3 kPa | 957.2 ± 1.2 kg/m3
213.5 kPa | 957.3 ± 1.2 kg/m3 and 957.2 ± 1.2 kg/m3
213.7 kPa | 957.3 ± 1.2 kg/m3 and 957.2 ± 1.2 kg/m3 and 957.1 ± 1.2 kg/m3
213.9 kPa | 957.2 ± 1.2 kg/m3 and 957.1 ± 1.2 kg/m3 and 957.4 ± 1.2 kg/m3
214.2 kPa | 957.1 ± 1.2 kg/m3
215.2 kPa | 957.2 ± 1.2 kg/m3
215.3 kPa | 957.3 ± 1.2 kg/m3
215.4 kPa | 957.2 ± 1.2 kg/m3 and 957.1 ± 1.2 kg/m3 and 957.3 ± 1.2 kg/m3
215.6 kPa | 957.4 ± 1.2 kg/m3 and 957.1 ± 1.2 kg/m3 and 957.2 ± 1.2 kg/m3
215.8 kPa | 957.3 ± 1.2 kg/m3
215.9 kPa | 957.2 ± 1.2 kg/m3
216 kPa | 957.3 ± 1.2 kg/m3
216.1 kPa | 957.3 ± 1.2 kg/m3 and 957.2 ± 1.2 kg/m3
216.3 kPa | 957.2 ± 1.2 kg/m3 and 957.3 ± 1.2 kg/m3
216.5 kPa | 957.3 ± 1.2 kg/m3 and 957.2 ± 1.2 kg/m3
216.6 kPa | 957.3 ± 1.2 kg/m3
216.8 kPa | 957.2 ± 1.2 kg/m3 and 957.1 ± 1.2 kg/m3
217.7 kPa | 957.2 ± 1.2 kg/m3 and 957.3 ± 1.2 kg/m3
218 kPa | 957.4 ± 1.2 kg/m3
218.2 kPa | 957.1 ± 1.2 kg/m3 and 957.2 ± 1.2 kg/m3
218.6 kPa | 957.2 ± 1.2 kg/m3
218.9 kPa | 957.2 ± 1.2 kg/m3
219.1 kPa | 957.2 ± 1.2 kg/m3
219.3 kPa | 957.3 ± 1.2 kg/m3
219.4 kPa | 957.1 ± 1.2 kg/m3 and 957.2 ± 1.2 kg/m3 and 957.3 ± 1.2 kg/m3
219.6 kPa | 957.4 ± 1.2 kg/m3
219.8 kPa | 957.2 ± 1.2 kg/m3
219.9 kPa | 957.1 ± 1.2 kg/m3
220 kPa | 957.2 ± 1.2 kg/m3
220.3 kPa | 957.2 ± 1.2 kg/m3
220.5 kPa | 957.2 ± 1.2 kg/m3
220.6 kPa | 957.1 ± 1.2 kg/m3
220.8 kPa | 957.1 ± 1.2 kg/m3
221 kPa | 957.1 ± 1.2 kg/m3
221.2 kPa | 957.3 ± 1.2 kg/m3
221.3 kPa | 957.2 ± 1.2 kg/m3
222.7 kPa | 957.3 ± 1.2 kg/m3
222.9 kPa | 957.1 ± 1.2 kg/m3
223.1 kPa | 957.2 ± 1.2 kg/m3
223.3 kPa | 957.3 ± 1.2 kg/m3 and 957.4 ± 1.2 kg/m3
223.4 kPa | 957.1 ± 1.2 kg/m3 and 957.3 ± 1.2 kg/m3 and 957.2 ± 1.2 kg/m3
223.6 kPa | 957.2 ± 1.2 kg/m3
223.8 kPa | 957.3 ± 1.2 kg/m3
224.1 kPa | 957.2 ± 1.2 kg/m3
224.3 kPa | 957.3 ± 1.2 kg/m3 and 957.2 ± 1.2 kg/m3
224.5 kPa | 957.2 ± 1.2 kg/m3 and 957.3 ± 1.2 kg/m3 and 957.1 ± 1.2 kg/m3
224.7 kPa | 957.2 ± 1.2 kg/m3
224.8 kPa | 957.3 ± 1.2 kg/m3 and 957.2 ± 1.2 kg/m3
225.2 kPa | 957.3 ± 1.2 kg/m3
226.9 kPa | 957.2 ± 1.2 kg/m3 and 957.3 ± 1.2 kg/m3
227.1 kPa | 957.3 ± 1.2 kg/m3
227.4 kPa | 957.2 ± 1.2 kg/m3
231.3 kPa | 957.2 ± 1.2 kg/m3 and 957.3 ± 1.2 kg/m3
231.6 kPa | 957.3 ± 1.2 kg/m3 and 957.1 ± 1.2 kg/m3
232 kPa | 957.1 ± 1.2 kg/m3 and 957.2 ± 1.2 kg/m3
232.3 kPa | 957.3 ± 1.2 kg/m3 and 957.2 ± 1.2 kg/m3
232.5 kPa | 957.2 ± 1.2 kg/m3
232.6 kPa | 957.3 ± 1.2 kg/m3
232.7 kPa | 957.3 ± 1.2 kg/m3
233 kPa | 957.2 ± 1.2 kg/m3
233.2 kPa | 957.2 ± 1.2 kg/m3
233.3 kPa | 957.2 ± 1.2 kg/m3
233.5 kPa | 957.2 ± 1.2 kg/m3
233.7 kPa | 957.3 ± 1.2 kg/m3
233.9 kPa | 957.3 ± 1.2 kg/m3
234 kPa | 957.2 ± 1.2 kg/m3 and 957.3 ± 1.2 kg/m3
234.4 kPa | 957.2 ± 1.2 kg/m3
234.6 kPa | 957.1 ± 1.2 kg/m3 and 957.4 ± 1.2 kg/m3 and 957.3 ± 1.2 kg/m3
234.7 kPa | 957.3 ± 1.2 kg/m3
234.9 kPa | 957.2 ± 1.2 kg/m3
235.1 kPa | 957.2 ± 1.2 kg/m3
235.2 kPa | 957.2 ± 1.2 kg/m3
235.6 kPa | 957.2 ± 1.2 kg/m3
235.8 kPa | 957.1 ± 1.2 kg/m3
236 kPa | 957.2 ± 1.2 kg/m3
236.1 kPa | 957.2 ± 1.2 kg/m3 and 957.3 ± 1.2 kg/m3
236.3 kPa | 957.3 ± 1.2 kg/m3
236.5 kPa | 957.1 ± 1.2 kg/m3
236.6 kPa | 957.2 ± 1.2 kg/m3
236.8 kPa | 957.2 ± 1.2 kg/m3
237 kPa | 957.1 ± 1.2 kg/m3 and 957.2 ± 1.2 kg/m3 and 957.3 ± 1.2 kg/m3
237.3 kPa | 957.3 ± 1.2 kg/m3
237.5 kPa | 957.2 ± 1.2 kg/m3
237.7 kPa | 957.2 ± 1.2 kg/m3 and 957.4 ± 1.2 kg/m3
237.9 kPa | 957.2 ± 1.2 kg/m3
238 kPa | 957.3 ± 1.2 kg/m3
238.2 kPa | 957.2 ± 1.2 kg/m3
238.4 kPa | 957.3 ± 1.2 kg/m3
238.6 kPa | 957.3 ± 1.2 kg/m3
238.7 kPa | 957.3 ± 1.2 kg/m3
238.9 kPa | 957.3 ± 1.2 kg/m3
239.2 kPa | 957.1 ± 1.2 kg/m3
239.3 kPa | 957.3 ± 1.2 kg/m3
240.1 kPa | 957.3 ± 1.2 kg/m3
240.3 kPa | 957.3 ± 1.2 kg/m3
240.5 kPa | 957.3 ± 1.2 kg/m3 and 957.2 ± 1.2 kg/m3
240.6 kPa | 957.1 ± 1.2 kg/m3
240.8 kPa | 957.3 ± 1.2 kg/m3
241.2 kPa | 957.4 ± 1.2 kg/m3
241.3 kPa | 957.3 ± 1.2 kg/m3 and 957.2 ± 1.2 kg/m3
241.5 kPa | 957.3 ± 1.2 kg/m3 and 957.1 ± 1.2 kg/m3
242 kPa | 957.3 ± 1.2 kg/m3
242.2 kPa | 957.3 ± 1.2 kg/m3
242.4 kPa | 957.2 ± 1.2 kg/m3
242.6 kPa | 957.3 ± 1.2 kg/m3
